Results on 10 molecules are retold here after patent publication EP4755877A1, “MODIFIED FLAVONE COMPOUNDS AND USE THEREOF” (Suzhou Glenkol Pharma Technology Co., Ltd., priority 2023, dated 2025).

The subject of series [1] is PC-12 cells. As to the kind of experiment: Glutamate-induced excitotoxic death of PC-12 cells, survival by propidium iodide/Hoechst staining. The class given is cell-based, rat. The note with it: for Enhancement of Cell Survival Rate: PC-12 cells, glutamate-induced death, compound at 100 nM; for pEC50: Rattus norvegicus, promotion of PC-12 survival under glutamate stimulation, 30 min pretreatment, 1 pM-100 µM, 24 h glutamate. The procedure: PC-12 cells (a […] cell line derived from rat adrenal medulla) were cultured in DMEM/F12 complete medium until 80-90% confluency. After being digested, collected, and resuspended, the cells were seeded into 24-well plates pre-coated with coverslips at a density of 5×10^4 cells per well. Following 26 hours of cell culture, glutamate-induced excitotoxic cell death modeling was performed. The modeling method was as follows: an appropriate amount of glutamate was weighed and dissolved in DMEM/F12 medium to prepare a stock solution; after filtration, the stock solution was diluted with the same medium, and the cells were administered with the diluted solution by medium replacement. After administration, the cells were further incubated for 24 hours.
Prior to glutamate modeling, cells incubated in the previous step were pretreated with small-molecule compounds listed in Table 1 at concentrations of 1 pM, 10 pM, 100 pM, 1 nM, 10 nM, 100 nM, 1 µM, 10 µM, and 100 µM for 30 minutes, followed by glutamate stimulation.
The cells treated with the compounds were stained with propidium iodide to assess cell death. After the medium was discarded, the cells were washed with PBS. Subsequently, propidium iodide/Hoechst was added. Following incubation for 30 minutes, the staining solution was removed, and the cells were washed with PBS again before being fixed and mounted on slides. Image acquisition was performed under a fluorescence microscope. The propidium iodide-positive cells and Hoechst-positive cells in the collected images were counted to calculate the cell survival rate. The survival rate was calculated using the formula: Cell survival rate = (1 - Number of Propidium Iodide-positive cells / Number of Hoechst-positive cells) × 100%. The gradient concentrations of the small molecule compounds and the corresponding normalized survival rates were imported into Prism software, and EC50 values were calculated using a non-linear regression model. 7,8-dihydroxyflavone was used as the positive control drug. Table 1: Dose-response relationship study of various compounds in promoting PC-12 neurocytes survival
Based on the aforementioned dose-response relationship study of the compounds, the inhibitory effects of different small molecule compounds on glutamate-induced excitotoxic death of PC-12 cells were further compared at the same dose (100 nM). Table 2: Study on the promoting effects of various compounds on PC-12 neurocytes survival

Series [2] can be described thus: Pharmacokinetics in rats after intravenous and oral gavage dosing, plasma LC-MS/MS. The class given is in vivo. The note with it: rat. Here is the method:
Preparation of intravenous bolus administration formulations: A graduation line for the final volume was marked on a clean and dry container. An appropriate amount of the test sample was weighed and added to the container to prepare a solution with a final concentration of 1 mg/mL.
Preparation of oral gavage administration formulations: A graduation line for the final volume was marked on a clean and dry container. An appropriate amount of the test sample was weighed and added to the container to prepare a solution with a final concentration of 3 mg/mL.
After preparation, the formulations were stored at room temperature and used on the day of preparation. A total of 2 groups of rats were set up, with […] per group (half male and half female). The compounds were administered to the rats at a dose of 1 mg/kg via intravenous injection and 15 mg/kg via oral gavage, respectively. All animals were allowed free access to food and water.
Intravenous administration: Before administration (0 h) and at 0.083, 0.167, 0.5, 1.0, 2.0, 4.0, 6.0, and 24 h after administration, 0.2 mL of blood samples were collected from the jugular vein and transferred to anticoagulant tubes (pre-cooled in advance for at least 5 minutes). The tubes were gently inverted several times to fully mix the blood with the anticoagulant. The blood samples were centrifuged at 4 °C for 10 minutes to separate the plasma. 95 µ L of plasma was collected and transferred to a centrifuge tube, which was stored in a refrigerator at below -80 °C until analysis.
Single oral gavage administration: Before administration (0 h) and at 0.167, 0.5, 1.0, 2.0, 4.0, 6.0, and 24 h after administration, 0.2 mL of blood samples were collected from the jugular vein and transferred to anticoagulant tubes. The sample processing method was the same as described above.
The concentration of the compounds in plasma was determined by LC-MS/MS, and data acquisition was performed using Analyst 1.6.3 software (AB Sciex). The pharmacokinetic parameters of the rats after administration were calculated using the non-compartmental model in Phoenix WinNonlin software.
7,8-dihydroxyflavone served as the control drug for comparing the pharmacokinetic characteristics of various compound. Table 3: PK parameters of various compound

Where [3] appears, read: in vivo, SD rats, plasma, 15 mg/kg oral gavage / 1 mg/kg intravenous, table does not state the route.
Setting [4] is: in vivo, SD rats, plasma, 15 mg/kg oral gavage / 1 mg/kg intravenous, table does not state the route, read-out: t1/2 (converted).
Where [5] appears, read: in vivo, SD rats, 15 mg/kg oral gavage vs 1 mg/kg intravenous, read-out: Oral Bioavailability F (%).
[6] abbreviates: both sexes, Sprague-Dawley, SD rats, plasma, 15 mg/kg oral gavage / 1 mg/kg intravenous, table does not state the route.

pEC50: −log10 of the molar value. Where two headings read alike, the source gives them in different places.

As a reminder, the AUC(0-t) is the area under the concentration-time curve up to a stated or last time point. A higher AUC(0-t) goes with more exposure. In general, Cmax refers to the maximum level reached in the sampled fluid or tissue. On to `COc1ccc2c(=O)cc(C3CCNCC3)oc2c1O` [Compound S29], for which the “Enhancement of Cell Survival Rate” value in series [1] was determined as 73.51%. For the same molecule, in series [2] (setting [3]), the AUC(0-t) turned out to be 0.331 µM·h and the highest concentration (Cmax) turned out to be 91.3 nM. Also, in series [2] (setting [4]), the half-life was 154 min. Moreover, the bioavailability in series [2] (setting [5]) turned out to be 3.38%.
`[2H]c1c([2H])c([2H])c(-c2cc(=O)c3ccc(O[C@@H]4O[C@H](C(=O)O)[C@@H](O)[C@H](O)[C@H]4O)c(O)c3o2)c([2H])c1[2H]` [Compound S25] yielded a Cmax in series [2] (setting [3]) of 3590 nM. Moreover, the half-life in series [2] (setting [4]) was 323 min. Also, the bioavailability in series [2] (setting [5]) stood at 52%.
A word on the pEC50: it is the negative decadic logarithm of the EC50, by convention in mol/L. `O=c1cc(-c2ccccc2)oc2c(O)c(O)ccc12` [7,8-dihydroxyflavone, 7,8-dihydroxyflavone, reference compound]: in series [1], the “Enhancement of Cell Survival Rate” value was 33.58% and the pEC50 is 9.80. The bioavailability in series [2] (both sexes, Sprague-Dawley, plasma, SD rats, 15 mg/kg oral gavage vs 1 mg/kg intravenous, read-out: Oral Bioavailability F (%)) stood at 1.9%. In series [2] (setting [6]), this molecule returned an AUC(0-t) of 0.1 µM·h and a Cmax of 75.1 nM. In series [2] (both sexes, Sprague-Dawley, SD rats, plasma, 15 mg/kg oral gavage / 1 mg/kg intravenous, table does not state the route, read-out: t1/2 (converted)), the half-life was 199 min.
On to `O=c1cc(-c2ccccc2)oc2c(F)c(O)ccc12` [Compound S1], for which the pEC50 in series [1] was 10.92. In series [2] (setting [3]), this molecule had an AUC(0-t) of 0.181 µM·h and a maximum concentration (Cmax) of 94.9 nM.
In series [2] (setting [3]), `O=c1cc(C2CCNCC2)oc2c(F)c(O)ccc12` [Compound S26] displayed an exposure AUC(0-t) of 0.252 µM·h and a Cmax of 68.1 nM. Also, in series [2] (setting [4]), the half-life was 272 min.
As for `O=c1cc(C2CCNCC2)oc2c(F)c(F)ccc12` [Compound S30], the “Enhancement of Cell Survival Rate” value in series [1] came out at 83.78%. In series [2] (setting [3]), the exposure AUC(0-t) came out at 10.3 µM·h and the Cmax came out at 1260 nM. Further, the half-life in series [2] (setting [4]) is 684 min. The bioavailability in series [2] (setting [5]) is 112%.
Regarding `O=c1cc(C2CCNCC2)oc2c(O[C@@H]3OC[C@@H](O)[C@H](O)[C@H]3O)c(O)ccc12` [Compound S27], in series [2] (in vivo), the half-life was 106 min.
In the case of `O=c1cc(C2CCNCC2)oc2c(O[C@@H]3O[C@H](CO)[C@@H](O)[C@H](O)[C@H]3O)c(O)ccc12` [Compound S28], the “Enhancement of Cell Survival Rate” value in series [1] is given as 43.06%. The molecule further gave a half-life in series [2] (in vivo) of 1000 min. Further, the bioavailability in series [2] (in vivo, po, 15 mg/kg) was determined as 2.72%.
Take `O=c1cc(C2CCNCC2)oc2c(O)c(O)ccc12` [Compound S12]: the pEC50 in series [1] is above 12.00. Besides, in series [2] (setting [3]), the AUC(0-t) was 0.151 µM·h and the concentration peaked (Cmax) at 113 nM. Moreover, the half-life in series [2] (setting [4]) was 110 min. For the same molecule, the bioavailability in series [2] (setting [5]) came out at 1.9%.
Regarding `O=C(O)[C@H]1O[C@@H](Oc2c(O)ccc3c(=O)cc(-c4ccccc4)oc23)[C@H](O)[C@@H](O)[C@@H]1O` [Compound S7], the pEC50 in series [1] is 10.95. In series [2] (setting [3]), this molecule registered an AUC(0-t) of 2.36 µM·h and a Cmax of 245 nM. The bioavailability in series [2] (setting [5]) was determined as 66.9%.
